The text below walks through data of patent US10829497B2, “Crystal form II of thienopyridine derivative bisulfate and preparation method therefor and use thereof” (ZHONGRONG KAITE (BEIJING) BIOTECHNOLOGY CO., LTD., priority 2017, dated 2020).

How the values of this series were obtained:
Stability Study of the Hydrogen Sulfate Crystal Form I and Form II of the Compound of Formula I Under High Temperature and High Humidity Conditions
Setting the hydrogen sulfate crystal form I and form II of the compound of formula I at temperature of 60° C. and high humidity (25° C., relative humidity of 90%±5%) respectively for 10 days. Samples were taken on the 0, 5th and 10th days and determined by high performance liquid chromatography to investigate the changes in impurities.
Chromatographic conditions: Agilent 1100 for high performance liquid chromatography; chromatographic column ULTRON ES-OVM (5 μm, 4.6 mm×150 mm); mobile phase 0.01 mol/L potassium dihydrogen phosphate aqueous solution-acetonitrile (80:20); detection wavelength 220 nm; column temperature 30° C.; flow rate 1.0 mL/min; injection volume 10 μL.
Test method: accurately weighting 5 mg of the test probe, placing it in a 10 mL volumetric flask, adding 1 mL of methanol, dissolving with ultrasound, diluting to the mark with mobile phase and shaking to make a test solution with a concentration of 0.5 mg/mL. Precisely injecting 10 μL of the test solution into the liquid chromatography, recording the chromatogram and calculating the total content of impurities according to peak area normalization method.

Where two headings read alike, the source gives them in different places.

For `[2H]C([2H])([2H])OC(=O)[C@H](c1ccccc1Cl)N1CCc2sccc2C1` [Crystal Form I, Methyl-d3 (2S)-2-(2-chlorophenyl)-2-(6,7-dihydrothieno[3,2-c]pyridin-5(4H)-yl)acetate], the “Total Impurity Content (peak area %)” value (High Humidity (25° C., relative humidity of 90%±5%), 0 day, listed as I) is given as 0.386 peak area %; the “Total Impurity Content (peak area %)” value (High Humidity (25° C., relative humidity of 90%±5%), 5th day, listed as I) was 0.438 peak area %; the “Total Impurity Content (peak area %)” value (High Humidity (25° C., relative humidity of 90%±5%), 10th day, listed as I) is recorded as 0.576 peak area %; the “Total Impurity Content (peak area %)” value (High Temperature (60° C.), 0 day, listed as I) was 0.386 peak area %; the “Total Impurity Content (peak area %)” value (High Temperature (60° C.), 5th day, listed as I) is 0.597 peak area %; the “Total Impurity Content (peak area %)” value (High Temperature (60° C.), 10th day, listed as I) was determined as 0.812 peak area %. Moreover, the “Total Impurity Growth Rate” value (High Humidity (25° C., relative humidity of 90%±5%), 10 days, listed as I) is recorded as 49.2% and the “Total Impurity Growth Rate” value (High Temperature (60° C.), 10 days, listed as I) is reported as 110%.

As for `[2H]C([2H])([2H])OC(=O)[C@H](c1ccccc1Cl)N1CCc2sccc2C1` [Crystal Form II, Methyl-d3 (2S)-2-(2-chlorophenyl)-2-(6,7-dihydrothieno[3,2-c]pyridin-5(4H)-yl)acetate], the “Total Impurity Content (peak area %)” value runs as follows: (High Humidity (25° C., relative humidity of 90%±5%), 0 day, listed as II) 0.372 peak area %; (High Humidity (25° C., relative humidity of 90%±5%), 5th day, listed as II) 0.409 peak area %; (High Humidity (25° C., relative humidity of 90%±5%), 10th day, listed as II) 0.533 peak area %; (High Temperature (60° C.), 0 day, listed as II) 0.372 peak area %; (High Temperature (60° C.), 5th day, listed as II) 0.526 peak area %; (High Temperature (60° C.), 10th day, listed as II) 0.737 peak area %. Besides, the “Total Impurity Growth Rate” value (High Humidity (25° C., relative humidity of 90%±5%), 10 days, listed as II) was 43.3% and the “Total Impurity Growth Rate” value (High Temperature (60° C.), 10 days, listed as II) worked out at 98.1%. Besides, the “stability compared with the hydrogen sulfate form I” value (high temperature and high humidity conditions, 10 days) was “better stability”.
